According to US20110152218A1, “CRYSTALLINE PHOSPHOLIPID, METHOD FOR ITS PRODUCTION AND USE IN TREATING DAMAGED TISSUE” (priority 2008, published 2011):
“Also recorded” adds a separate entry of the source.

What was measured:
Assay type in all cases: cell-based, rabbit
[1] = tested on: tendon core cells (endotenon); assay: WST-1 proliferation assay, tendon core cells
Procedure: (§1) Therefore all three-cell types were established and cultured as separate cell strains.
(§2) Tendon derived fibroblasts were cultured in Dulbecco's Modified Eagles Medium (DMEM) with 10% fetal calf serum, 2 mM glutamine, 100 U/ml penicillin and […] streptomycin (NGM).
(§3) A 5 mg/ml solution of the phospholipid prepared according to Example 1 and referred to in this example as “Pumactant” was dissolved in serum free media in a sterile 100 ml bottle incubated at 37° C. and then diluted further to a concentration of 1 mg/ml.
(§4) Fibroblasts derived from tendons were seeded at 5×10^3/well into a 96 microtitre plate (Greiner) and allowed to attach overnight in minimum media (DMEM supplemented with 0.4% FCS) to maintain cells in a healthy but quiescent state. After 24 hrs, the media was aspirated and replaced by test media (minimum media with concentrations of pumactant; or different concentrations of fetal calf serum; or different concentrations of TGF-β1) and cultured for 24, 48 and 72 hours. Cell number was assessed using WST-1 assay (Roche Products Ltd). Test media was removed and the wells washed twice with minimal media, minimal media was replaced and 10 μl WST-1 solution was added to each well. The cells were incubated for 1 hour in standard tissue culture conditions. The absorbance, which related to the number of viable cells converting the reagent to coloured formazan crystals, was read at 450 nm on a Bio-Rad Plate reader. Experiments were performed in triplicate for each cell strain.

[2] = tested on: cells derived from the tendon sheath; assay: WST-1 proliferation assay, tendon sheath cells
Procedure: as §1, §2, §3, §4

[3] = tested on: collagen type I, collagen type III, fibronectin, PAI-1, tPA gene transcription in sheath derived cells; assay: QRT-PCR gene transcription, sheath derived cells; settings: time course, pumactant 1 mg/ml or TGF-β1, n=3
Procedure: (§5) Cells were placed in serum free media for 24 hrs prior to stimulation with pumactant or TGF-β1; viability was assessed using Trypan blue (Sigma; data not shown). Quiescent cells were treated with pumactant (1 mg/ml) for 0-24 hrs or TGF-β1 for 0-24 h ours (positive control). Total RNA was isolated from treated and untreated samples using Trizol (Gibco). Quant-iT™ Ribogreen® RNA kit (Invitrogen) was used to determine RNA concentration. First strand cDNA was synthesized using the StrataScript® first-strand synthesis system (Stratagene™) with oligonucleotide dTs (0.5 μg/μl) according to manufacturer's instructions.
(§6) Two μl of the first strand cDNA product was used for amplification in triplicate in a 25 μl reaction solution containing 12.5 μl of SYBR Green PCR Master Mix (Stratagene™, La Jolla, Calif.) and 10 pM of each primer as per manufacturer's instructions. Primer sequences are identified in Table 1. The primer sequences are also listed in the sequence listing which is attached to the specification of the present application and made a part thereof.
(§7) The PCR reaction was performed on a MX3000P (Stratagene, La Jolla, Calif.). The PCR program consisted of an initial denaturation where the reaction was incubated for 10 min at 95° C., the second step the DNA was amplified for 40 cycles of 30 sec at 95° C. annealing of primers for 1 min at 60° C. and an extension at 72° C. for 30 sec. Dissociation curve was performed to ensure no primer-dimers were present at the end of each PCR run.
(§8) The relative expression software tool (REST©) was used for the calculation of relative expression levels in real-time PCR (Pfaffl et al, 2002). This mathematical model is based on the PCR efficiencies and the mean crossing point deviation between the treated and untreated cells. The target gene expression was normalized with two housekeeping genes: GAPDH and ACTB. Statistical analysis of group differences was performed by Pair Wise Fixed Reallocation Randomization Test©, implemented in the REST-XL software (Pfaffl et al, 2002) and the coefficient of variance was given. Sigma Plot was used to illustrate the logarithmic graphs.

[4] = tested on: cells derived from the surface of the tendon (epitenon); assay: WST-1 proliferation assay, tendon surface cells
Procedure: as §1, §2, §3, §4

[5] = tested on: collagen type I, collagen type III, fibronectin, PAI-1, tPA gene transcription in core derived cells; assay: QRT-PCR gene transcription, core derived cells; settings: 48-hour time course, pumactant 1 mg/ml or TGF-β1 2 ng/ml, n=3
Procedure: Cells were placed in serum free media for 24 hrs prior to stimulation with pumactant or TGF-β1; viability was assessed using Trypan blue (Sigma; data not shown). […] Total RNA was isolated from treated and untreated samples using Trizol (Gibco). Quant-iT™ Ribogreen® RNA kit (Invitrogen) was used to determine RNA concentration. First strand cDNA was synthesized using the StrataScript® first-strand synthesis system (Stratagene™) with oligonucleotide dTs (0.5 μg/μl) according to manufacturer's instructions.
as §6, §7, §8

[6] = tested on: collagen type I, collagen type III, fibronectin, PAI-1, tPA gene transcription in surface derived cells; assay: QRT-PCR gene transcription, surface derived cells; settings: time course
Procedure: as §5, §6, §7, §8

[7] = pumactant 1 mg/ml or TGF-β1, n=3

**Q.** For “TGF-β1: growth factor used as positive control”, which “proliferation of core cells” value ([1]; 24 hours, over the tested concentrations, FIG. 25) is on record?
**A.** no statistical increase in proliferation

**Q.** And the “proliferation of core cells” value ([1]; 48 hours, various concentrations)?
**A.** no statistical significance

**Q.** What about the “proliferation of core cells” value ([1]; 72 hours, any concentration, FIG. 27) of the same substance?
**A.** no statistical significance

**Q.** And the “cell number of sheath cells compared to control media” value ([2]; 24 hours, the other / various concentrations)?
**A.** no statistical significance; also recorded: no statistical changes in cell number

**Q.** And the “proliferation of sheath cells” value ([2]; 48 hours, any concentration)?
**A.** no statistical significance for any concentration

**Q.** And the “proliferation of sheath cells” value ([2]; 72 hours, 0.5 ng/ml of TGF-β1)?
**A.** statistical significant increase

**Q.** And the PAI-1 gene transcription [3]?
**A.** no statistical changes over the whole time course

**Q.** And the “collagen type I gene transcription” value [3]?
**A.** up regulate of Collagen type I gene transcription over the time course though this did not reach statistical significance

**Q.** And the “collagen type III gene transcription” value [3]?
**A.** up regulation, which was statistically significant at 6 hours, 8 hours (p=0.03; FIG. 30), 16 and 24 hours; also recorded: statistically significant up regulation at 6 hrs (*p=0.03), 8 hrs (*p=0.037), 16 hrs (*p=0.012) and 24 hrs

**Q.** And the fibronectin gene transcription [3]?
**A.** no statistical changes over the whole time course

**Q.** And the tPA gene transcription [3]?
**A.** down regulation of gene transcription which was statistically significant at 2 hrs (p=0.013), 4 hours and 24 hours; also recorded: statistically significant down regulation at 2 hrs (*p=0.013), 4 hrs (*p=0.001) and 24 hrs

**Q.** And the “proliferation of surface cells” value ([4]; 24 hours, over the tested concentrations)?
**A.** no statistical significant difference at any concentration

**Q.** And the “proliferation of surface cells” value ([4]; 48 hours, various concentrations of TGF-β1)?
**A.** No concentrations of TGF-β1 showed any statistical increase; also recorded: no statistical significance

**Q.** What about the “proliferation of surface cells compared to minimal media” value ([4]; 72 hours, 2 ng/ml of TGF-β1, FIG. 24C) of the same substance?
**A.** statistically significant increase in proliferation; also recorded: increase was identified at 2 ng/ml

**Q.** And the PAI-1 gene transcription [5]?
**A.** up regulation of gene transcription at 2 and 4 hours but this was only statistically significant at 2 hours; also recorded: statistically significant increase at 2 hrs

**Q.** What about the “collagen type I gene transcription” value [5] of the same substance?
**A.** no statistical change

**Q.** What about the “collagen type III gene transcription” value [5] of the same substance?
**A.** statistically significant down regulation in the early stages of the time course 2, 6 and 8 hours; also recorded: statistically significant down regulation at 2, 6 and 8 hours

**Q.** And the fibronectin gene transcription [5]?
**A.** at 6 h a statistically significant down regulation (p=0.024), which was later, reversed with a statistically significant up regulation at 24 and 48 hours; also recorded: significant down regulation of fibronectin gene transcription at 6 hours (*p=0.024) and a statistically significant up-regulation at 24 hrs (*p=0.03) and 48 hrs

**Q.** And the tPA gene transcription [5]?
**A.** statistically significant down regulation in gene transcription at 1, 2, 6, 8 and 24 hrs 0.01) and 16 hours

**Q.** What about the PAI-1 gene transcription [6, 7] of the same substance?
**A.** up regulation in response to TGF-β1, which was statistically significant at 24 hours for fibronectin (p=0.03) and 4 hours for PAI-1

**Q.** What about the “collagen type III gene transcription” value [6, 7] of the same substance?
**A.** statistically significant down regulation at 1 hrs (*p=0.036), 2 hrs (*p=0.001), 6 hrs (*p=0.038), 16 hrs and 48 hrs

**Q.** And the fibronectin gene transcription [6, 7]?
**A.** up regulation in response to TGF-β1, which was statistically significant at 24 hours for fibronectin

**Q.** What about the “collagen type I gene transcription” value ([6]; pumactant 1 mg/ml or TGF-β1, vs untreated, normalized with GAPDH and ACTB, n=3) of the same substance?
**A.** up regulation of Collagen type I gene transcription which was statistically significant at 24 and 48 hours; also recorded: statistically significant up regulation at 24 hours (*p=0.025) and 48 hours
